Laboratory results published in ChEMBL document CHEMBL4118098, “Discovery of DS28120313 as a potent orally active hepcidin production inhibitor: Design and optimization of novel 4,6-disubstituted indazole derivatives” (Bioorg Med Chem Lett, 2017).
Blank lines part the entries; values can stand above or below the compound they belong to.

Legend:
[1] = biological target: T1, cGMP-dependent protein kinase 1 (Homo sapiens) (UniProt Q13976); test: Inhibition of PKG1-beta (unknown origin) at 0.19 uM relative to control
T1 sequence (whole entry): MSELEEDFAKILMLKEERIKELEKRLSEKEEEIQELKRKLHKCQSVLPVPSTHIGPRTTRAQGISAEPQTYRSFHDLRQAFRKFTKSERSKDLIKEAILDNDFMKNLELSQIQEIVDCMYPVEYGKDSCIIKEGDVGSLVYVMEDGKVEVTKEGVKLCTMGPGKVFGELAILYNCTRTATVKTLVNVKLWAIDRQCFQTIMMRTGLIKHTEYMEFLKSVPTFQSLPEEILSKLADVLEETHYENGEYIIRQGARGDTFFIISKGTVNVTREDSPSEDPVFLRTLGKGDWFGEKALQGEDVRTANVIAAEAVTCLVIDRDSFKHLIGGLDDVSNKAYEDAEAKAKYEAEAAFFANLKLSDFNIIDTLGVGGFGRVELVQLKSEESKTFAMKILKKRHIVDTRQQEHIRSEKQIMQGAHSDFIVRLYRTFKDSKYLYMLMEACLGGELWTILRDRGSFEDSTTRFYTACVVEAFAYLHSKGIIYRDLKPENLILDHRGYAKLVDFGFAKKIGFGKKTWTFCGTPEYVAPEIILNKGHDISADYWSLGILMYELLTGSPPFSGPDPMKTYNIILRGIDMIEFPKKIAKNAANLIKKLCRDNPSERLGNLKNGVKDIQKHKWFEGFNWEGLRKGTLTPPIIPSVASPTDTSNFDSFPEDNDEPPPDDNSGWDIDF

[2] = biological target: Serine/threonine-protein kinase pim-1 (Homo sapiens) (UniProt P11309); test: Inhibition of PIM1 (unknown origin) at 0.19 uM relative to control
[3] = biological target: Insulin-like growth factor 1 receptor (Homo sapiens) (UniProt P08069); test: Inhibition of IGF1R (unknown origin) at 0.19 uM relative to control
[4] = biological target: Protein kinase C alpha type (Homo sapiens) (UniProt P17252); test: Inhibition of PKC-alpha (unknown origin) at 0.19 uM relative to control
[5] = biological target: T2, Cyclin-dependent kinase 1/cyclin B1 (Homo sapiens) (UniProt P06493+P14635); test: Inhibition of CDK1/CyclinB (unknown origin) at 0.19 uM relative to control; type: protein-complex assay
[6] = biological target: Vascular endothelial growth factor receptor 2 (Homo sapiens) (UniProt P35968); test: Inhibition of KDR (unknown origin) at 0.19 uM relative to control
[7] = biological target: Ephrin type-A receptor 1 (Homo sapiens) (UniProt P21709); test: Inhibition of EPHA1 (unknown origin) at 0.19 uM relative to control
[8] = biological target: Tyrosine-protein kinase Srms (Homo sapiens) (UniProt Q9H3Y6); test: Inhibition of SRM (SRMS) (unknown origin) at 0.19 uM relative to control
[9] = biological target: Serine/threonine-protein kinase PAK 5 (Homo sapiens) (UniProt Q9P286); test: Inhibition of PAK5/PAK7 (unknown origin) at 0.19 uM relative to control
[10] = biological target: Tyrosine-protein kinase receptor UFO (Homo sapiens) (UniProt P30530); test: Inhibition of AXL (unknown origin) at 0.19 uM relative to control
[11] = biological target: Leukocyte tyrosine kinase receptor (Homo sapiens) (UniProt P29376); test: Inhibition of LTK (unknown origin) at 0.19 uM relative to control
[12] = biological target: Inhibitor of nuclear factor kappa-B kinase subunit beta (Homo sapiens) (UniProt O14920); test: Inhibition of IKK-beta (unknown origin) at 0.19 uM relative to control
[13] = biological target: Ephrin type-B receptor 3 (Homo sapiens) (UniProt P54753); test: Inhibition of EPHB3 (unknown origin) at 0.19 uM relative to control
[14] = biological target: RAC-alpha serine/threonine-protein kinase (Homo sapiens) (UniProt P31749); test: Inhibition of AKT1 (unknown origin) at 0.19 uM relative to control
[15] = biological target: Glycogen synthase kinase-3 alpha (Homo sapiens) (UniProt P49840); test: Inhibition of GSK3-alpha (unknown origin) at 0.19 uM relative to control
[16] = biological target: Cyclin-dependent kinase 2 (Homo sapiens) (UniProt P24941); test: Inhibition of CDK2 (unknown origin) at 0.19 uM relative to control
[17] = biological target: Protein kinase C beta type (Homo sapiens) (UniProt P05771); test: Inhibition of PKC-beta1 (unknown origin) at 0.19 uM relative to control
[18] = tested on: Mitogen-activated protein kinase 14 (Homo sapiens), Q16539 [T106M]; test: Inhibition of SAPK2a T106M mutant (unknown origin) at 0.19 uM relative to control
[19] = biological target: Receptor-type tyrosine-protein kinase FLT3 (Homo sapiens) (UniProt P36888); test: Inhibition of FLT3 (unknown origin) at 0.164 uM relative to control
[20] = biological target: Platelet-derived growth factor receptor alpha (Homo sapiens) (UniProt P16234); test: Inhibition of PDGFR alpha (unknown origin) at 0.164 uM relative to control
[21] = tested on: Fibroblast growth factor receptor 2 (Homo sapiens), P21802 [N549H]; test: Inhibition of FGFR2 N549H mutant (unknown origin) at 0.164 uM
[22] = biological target: Serine/threonine-protein kinase BRSK2 (Homo sapiens) (UniProt Q8IWQ3); test: Inhibition of BRSK2 (unknown origin) at 0.164 uM relative to control
[23] = Inhibition of GCK (unknown origin) at 0.164 uM relative to control
[24] = biological target: Casein kinase I isoform gamma-2 (Homo sapiens) (UniProt P78368); test: Inhibition of CK1-gamma2 (unknown origin) at 0.164 uM relative to control
[25] = biological target: Tyrosine-protein kinase HCK (Homo sapiens) (UniProt P08631); test: Inhibition of Hck (unknown origin) at 0.164 uM relative to control
[26] = tested on: Tyrosine-protein kinase ABL1 (Homo sapiens), P00519 [H396P]; test: Inhibition of Abl H396P mutant (unknown origin) at 0.164 uM relative to control
[27] = biological target: T2, Cyclin-dependent kinase 1/cyclin B1 (Homo sapiens); test: Inhibition of CDK1/Cyclin B1 (unknown origin) at 0.164 uM relative to control; type: protein-complex assay
[28] = tested on: Epidermal growth factor receptor (Homo sapiens), P00533 [T790M]; test: Inhibition of EGFR T790M mutant (unknown origin) at 0.164 uM relative to control
[29] = biological target: Vascular endothelial growth factor receptor 2 (Homo sapiens) (UniProt P35968); test: Inhibition of KDR (unknown origin) at 0.164 uM relative to control
[30] = biological target: MAP kinase-interacting serine/threonine-protein kinase 2 (Homo sapiens) (UniProt Q9HBH9); test: Inhibition of MNK2 (unknown origin) at 0.164 uM relative to control
[31] = biological target: MAP kinase-interacting serine/threonine-protein kinase 2 (Homo sapiens) (UniProt Q9HBH9); test: Inhibition of MNK2 (unknown origin) at 0.45 uM relative to control

inhibition [1]: -3.3%
inhibition [2]: -1.3%
inhibition [3]: 5%
inhibition [4]: -1.7%
inhibition [5]: -2%
inhibition [6]: 51%
inhibition [7]: 6.3%
inhibition [8]: 3.7%
inhibition [9]: -2.7%
inhibition [10]: -2.3%
inhibition [11]: 0.3%
inhibition [12]: 8%
inhibition [13]: 1%
inhibition [14]: 1.7%
inhibition [15]: 1.7%
inhibition [16]: -1.7%
inhibition [17]: 3%
inhibition [18]: 0.3%
SMILES: Cc1[nH]nc(C2CC2)c1-c1ccc2c(-c3ccc(N4CCN(C)CC4)nc3)n[nH]c2c1

inhibition [19]: 5%
inhibition [20]: 11.7%
inhibition [21]: -3.3%
inhibition [22]: -6.7%
inhibition [23]: 7%
inhibition [24]: 2.3%
inhibition [25]: 0%
inhibition [26]: 1.7%
inhibition [27]: -0.3%
inhibition [28]: 1.3%
inhibition [29]: 11.7%
inhibition [30]: -0.7%
SMILES: COC(=O)Nc1cc(-c2c(C3CC3)n[nH]c2C)cc2[nH]ncc12

inhibition [31]: -1%
SMILES: Cc1n[nH]c(C)c1-c1ccc2c(NC(=O)c3ccc(N4CCN(C)CC4)cc3)n[nH]c2c1
